{"source": "ChEMBL document CHEMBL1201862", "about": "“PubChem BioAssay data set” (2004)", "key": {"Keap1/Nrf2": {"target": "Keap1/Nrf2 (Homo sapiens, UniProt Q14145)", "sequence (Q16236 whole entry)": "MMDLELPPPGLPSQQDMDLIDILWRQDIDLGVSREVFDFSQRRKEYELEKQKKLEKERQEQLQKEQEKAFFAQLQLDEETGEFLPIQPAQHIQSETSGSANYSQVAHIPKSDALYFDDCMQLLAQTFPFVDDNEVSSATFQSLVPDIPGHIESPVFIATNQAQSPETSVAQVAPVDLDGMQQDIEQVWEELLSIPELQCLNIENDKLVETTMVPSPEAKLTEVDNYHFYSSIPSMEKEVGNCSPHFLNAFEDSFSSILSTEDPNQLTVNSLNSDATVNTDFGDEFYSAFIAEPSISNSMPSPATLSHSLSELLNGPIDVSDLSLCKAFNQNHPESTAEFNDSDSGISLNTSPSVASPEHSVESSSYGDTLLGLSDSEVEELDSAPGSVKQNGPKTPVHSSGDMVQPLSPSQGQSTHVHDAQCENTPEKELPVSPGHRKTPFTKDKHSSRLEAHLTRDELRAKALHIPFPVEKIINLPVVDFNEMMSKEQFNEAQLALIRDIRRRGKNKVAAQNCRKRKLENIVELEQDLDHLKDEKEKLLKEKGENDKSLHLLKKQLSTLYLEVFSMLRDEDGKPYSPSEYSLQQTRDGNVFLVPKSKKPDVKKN", "sequence (Q14145 whole entry)": "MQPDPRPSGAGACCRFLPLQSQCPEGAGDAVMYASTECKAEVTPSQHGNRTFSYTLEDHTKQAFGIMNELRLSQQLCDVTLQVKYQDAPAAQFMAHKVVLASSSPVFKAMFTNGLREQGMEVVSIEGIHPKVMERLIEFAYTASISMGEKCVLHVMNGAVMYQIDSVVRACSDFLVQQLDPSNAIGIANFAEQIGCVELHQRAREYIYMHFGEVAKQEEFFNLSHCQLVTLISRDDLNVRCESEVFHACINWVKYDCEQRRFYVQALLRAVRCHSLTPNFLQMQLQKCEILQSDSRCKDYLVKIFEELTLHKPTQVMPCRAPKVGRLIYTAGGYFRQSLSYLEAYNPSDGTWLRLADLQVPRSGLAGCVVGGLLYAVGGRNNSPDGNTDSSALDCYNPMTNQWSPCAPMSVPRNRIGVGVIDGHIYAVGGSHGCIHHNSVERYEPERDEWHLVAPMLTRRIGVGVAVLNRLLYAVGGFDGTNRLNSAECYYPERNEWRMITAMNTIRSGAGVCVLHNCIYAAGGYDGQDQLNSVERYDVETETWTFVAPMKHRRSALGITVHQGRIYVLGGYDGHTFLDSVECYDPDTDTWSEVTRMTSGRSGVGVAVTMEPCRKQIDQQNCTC", "assay": "Keap1-Nrf2 protein-protein interaction inhibitors, dose response, biochemical, fluorescence polarization, cherry-picked samples (AID 588683)"}, "ORF 73": {"target": "T1, ORF 73 (Human herpesvirus 8, UniProt O40947)", "T1 sequence (O40947 whole entry)": "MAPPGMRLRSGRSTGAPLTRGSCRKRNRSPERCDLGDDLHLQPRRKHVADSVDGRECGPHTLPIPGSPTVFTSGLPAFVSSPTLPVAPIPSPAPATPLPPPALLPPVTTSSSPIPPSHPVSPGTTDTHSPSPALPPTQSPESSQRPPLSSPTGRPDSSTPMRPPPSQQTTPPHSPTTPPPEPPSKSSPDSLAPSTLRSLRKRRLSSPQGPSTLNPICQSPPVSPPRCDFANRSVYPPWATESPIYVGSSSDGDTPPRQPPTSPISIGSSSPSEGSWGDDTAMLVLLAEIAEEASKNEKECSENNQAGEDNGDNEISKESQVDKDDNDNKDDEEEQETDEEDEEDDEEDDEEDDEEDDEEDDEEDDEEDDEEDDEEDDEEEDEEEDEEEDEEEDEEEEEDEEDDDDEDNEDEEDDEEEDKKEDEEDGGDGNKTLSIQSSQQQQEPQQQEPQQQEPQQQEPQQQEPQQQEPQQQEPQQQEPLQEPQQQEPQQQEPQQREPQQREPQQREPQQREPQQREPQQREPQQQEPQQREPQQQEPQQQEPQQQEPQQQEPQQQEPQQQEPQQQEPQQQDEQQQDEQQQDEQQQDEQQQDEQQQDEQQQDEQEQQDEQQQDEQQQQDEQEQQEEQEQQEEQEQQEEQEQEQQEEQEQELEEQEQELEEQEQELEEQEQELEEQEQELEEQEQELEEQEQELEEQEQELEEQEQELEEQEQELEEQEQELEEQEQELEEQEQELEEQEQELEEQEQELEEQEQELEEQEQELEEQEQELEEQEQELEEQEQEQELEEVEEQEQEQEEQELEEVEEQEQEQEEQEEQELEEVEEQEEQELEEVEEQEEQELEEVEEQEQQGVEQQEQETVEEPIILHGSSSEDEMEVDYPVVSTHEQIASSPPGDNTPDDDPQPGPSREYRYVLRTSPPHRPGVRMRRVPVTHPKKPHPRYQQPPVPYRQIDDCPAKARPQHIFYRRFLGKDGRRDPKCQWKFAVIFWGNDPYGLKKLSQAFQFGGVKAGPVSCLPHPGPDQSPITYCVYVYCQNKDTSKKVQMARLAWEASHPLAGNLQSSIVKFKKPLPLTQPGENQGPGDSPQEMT", "assay": "inhibitors of C-LANA binding to LBS DNA, dose response, biochemical, fluorescence polarization, cherry-picked samples (AID 504725);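 further: fluorescence polarization of a labeled DNA duplex reporting LANA DNA binding; potency is for inhibitors that block LANA binding to the DNA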", "set-up": "species or system Human gammaherpesvirus 8"}, "[1]": {"target": "UDP-galactopyranose mutase (Mycobacterium tuberculosis, UniProt P9WIQ1)", "sequence (P9WIQ1 whole entry)": "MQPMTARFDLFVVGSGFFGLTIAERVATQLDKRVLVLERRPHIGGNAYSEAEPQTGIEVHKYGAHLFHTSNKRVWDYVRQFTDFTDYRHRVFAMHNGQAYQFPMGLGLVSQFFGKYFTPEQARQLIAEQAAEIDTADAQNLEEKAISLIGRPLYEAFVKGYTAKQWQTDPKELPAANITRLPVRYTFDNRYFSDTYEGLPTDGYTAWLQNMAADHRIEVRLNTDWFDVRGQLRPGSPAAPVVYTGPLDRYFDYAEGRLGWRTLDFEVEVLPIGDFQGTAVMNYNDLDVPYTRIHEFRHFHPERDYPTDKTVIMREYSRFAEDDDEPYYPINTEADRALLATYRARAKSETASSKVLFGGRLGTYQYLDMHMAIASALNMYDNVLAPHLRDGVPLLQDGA", "assay": "Inhibitors of Mycobacterium tuberculosis UDP-galactopyranose mutase (UGM) enzyme Measured in Biochemical System Using Plate Reader - 2105-02_Inhibitor_Dose_CherryPick_Activity. [Related pubchem assays (depositor defined):AID504439]"}, "cells": {"assay": "cells", "assay_type": "functional"}, "[2]": {"assay": "THP-1 cell cytotoxicity, dose response, cytotoxicity control for non-replicating M. tuberculosis project (AID 489025)", "assay_type": "functional"}, "[3]": {"assay": "Shn3 3'UTR reporter inhibitors, dose response, cell-based, Clone20 osteoblasts, firefly luciferase, cherry-picked (AID 624132)", "assay_type": "functional"}, "[4]": {"assay": "insulin promoter down-regulators in MIN6 cells, imaging, high-content screening, mouse beta cells (AID 1628)", "assay_type": "functional"}, "[5]": {"target": "T2, Corticotropin-releasing factor receptor 2/Corticotropin-releasing factor-binding protein (Homo sapiens, UniProt P24387+Q13324)", "T2 sequence (Q13324 whole entry)": "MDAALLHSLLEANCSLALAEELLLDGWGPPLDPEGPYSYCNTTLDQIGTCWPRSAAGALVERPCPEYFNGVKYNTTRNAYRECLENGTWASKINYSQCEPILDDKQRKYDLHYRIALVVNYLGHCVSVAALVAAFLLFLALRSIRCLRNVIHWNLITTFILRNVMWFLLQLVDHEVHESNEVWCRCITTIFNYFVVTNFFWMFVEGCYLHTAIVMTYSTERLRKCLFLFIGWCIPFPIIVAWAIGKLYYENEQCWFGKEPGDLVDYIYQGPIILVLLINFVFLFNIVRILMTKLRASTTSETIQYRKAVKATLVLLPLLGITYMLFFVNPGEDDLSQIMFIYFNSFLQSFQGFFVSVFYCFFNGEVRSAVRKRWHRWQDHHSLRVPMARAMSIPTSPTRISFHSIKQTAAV", "T2 sequence (P24387 whole entry)": "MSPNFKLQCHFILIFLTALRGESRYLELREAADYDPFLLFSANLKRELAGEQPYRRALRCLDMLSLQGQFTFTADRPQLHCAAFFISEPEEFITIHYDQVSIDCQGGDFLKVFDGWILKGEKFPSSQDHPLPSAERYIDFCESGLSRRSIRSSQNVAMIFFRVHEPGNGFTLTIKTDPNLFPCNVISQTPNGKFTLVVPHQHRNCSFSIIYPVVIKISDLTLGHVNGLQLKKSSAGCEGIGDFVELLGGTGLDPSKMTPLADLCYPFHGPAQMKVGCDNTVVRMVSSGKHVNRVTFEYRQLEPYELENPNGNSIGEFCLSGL", "assay": "Dose Response confirmation of uHTS hits for small molecule antagonists of the CRF-binding protein and CRF-R2 receptor complex.", "assay_type": "functional", "conditions": "read-out: IC50_Mean"}, "[6]": {"assay": "HepG2 cell cytotoxicity, dose response, cytotoxicity control for Shn3 inhibitor project, CellTiter-Glo, cherry-picked (AID 624134)", "assay_type": "functional, cell-based"}, "[7]": {"assay": "Vero E6 cell cytotoxicity, dose response, cytotoxicity control for non-replicating M. tuberculosis project, secondary assay (AID 492998)", "assay_type": "functional, VeroE6", "conditions": "Vero C1008"}, "[8]": {"assay": "cytotoxicity in MIN6 insulinoma cells, dose response, cytotoxicity control, cell-based, mouse insulinoma (AID 2122);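 further: confirmatory high-throughput counterscreen run to flag cytotoxic compounds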", "assay_type": "functional"}, "[9]": {"assay": "HepG2 cell cytotoxicity, dose response, cytotoxicity control for non-replicating M. tuberculosis project (AID 489018)", "assay_type": "functional", "conditions": "Mycobacterium tuberculosis"}, "[10]": {"target": "T2, Corticotropin-releasing factor receptor 2/Corticotropin-releasing factor-binding protein", "assay": "activators of CRF receptor 2 with binding protein – uHTS hits, confirmation (AID 602473)", "assay_type": "functional", "conditions": "read-out: EC50_Mean"}, "[11]": {"assay": "control 3'UTR Renilla luciferase suppression, dose response, counter-screen for Shn3 inhibitor project, cell-based, Clone20-Shn3RL, cherry-picked (AID 624133)", "assay_type": "functional"}, "[12]": {"assay": "cytotoxicity in HEK-293T NF-kB-Luc cells, dose response, cytotoxicity control for B/T-cell NF-kB inhibitor project, cell-based, uHTS hits (AID 489019);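 further: IC50 reflects cytotoxicity as loss of cell viability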", "assay_type": "functional"}, "Jurkat": {"system": "Jurkat", "assay": "antigen receptor-induced NF-kB inhibitors, dose response, Jurkat, luciferase reporter, luminescence, B- and T-cell (AID 489004);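 further: NF-kB luciferase reporter Jurkat cells stimulated with PMA plus ionomycin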", "assay_type": "functional, cell-based", "conditions": "Homo sapiens"}, "Cytochrome P450 3A4": {"target": "Cytochrome P450 3A4 (Homo sapiens, UniProt P08684)", "sequence (P08684 whole entry)": "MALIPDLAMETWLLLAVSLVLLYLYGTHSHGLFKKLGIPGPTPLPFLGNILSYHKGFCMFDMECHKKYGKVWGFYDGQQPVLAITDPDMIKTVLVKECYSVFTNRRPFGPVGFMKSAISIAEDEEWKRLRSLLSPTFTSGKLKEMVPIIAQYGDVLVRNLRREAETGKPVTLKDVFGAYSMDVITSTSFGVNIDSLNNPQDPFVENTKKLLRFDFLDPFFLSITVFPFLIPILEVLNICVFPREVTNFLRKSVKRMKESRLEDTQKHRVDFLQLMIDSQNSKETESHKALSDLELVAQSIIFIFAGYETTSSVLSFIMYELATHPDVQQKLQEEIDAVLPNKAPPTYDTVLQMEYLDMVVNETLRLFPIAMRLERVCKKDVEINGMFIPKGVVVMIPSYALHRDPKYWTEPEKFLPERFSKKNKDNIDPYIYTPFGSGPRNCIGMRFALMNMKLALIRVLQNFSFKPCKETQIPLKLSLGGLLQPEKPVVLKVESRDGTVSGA"}, "[13]": {"assay": "inhibitors of PGC1a acetylation in cells, dose response, cell-based, cherry-picked samples (AID 720514);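 further: potency may reflect raised or lowered acetylation signal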", "assay_type": "functional"}, "[14]": {"target": "T3, High affinity choline transporter 1 (Homo sapiens, UniProt Q9GZV3)", "T3 sequence (Q9GZV3 whole entry)": "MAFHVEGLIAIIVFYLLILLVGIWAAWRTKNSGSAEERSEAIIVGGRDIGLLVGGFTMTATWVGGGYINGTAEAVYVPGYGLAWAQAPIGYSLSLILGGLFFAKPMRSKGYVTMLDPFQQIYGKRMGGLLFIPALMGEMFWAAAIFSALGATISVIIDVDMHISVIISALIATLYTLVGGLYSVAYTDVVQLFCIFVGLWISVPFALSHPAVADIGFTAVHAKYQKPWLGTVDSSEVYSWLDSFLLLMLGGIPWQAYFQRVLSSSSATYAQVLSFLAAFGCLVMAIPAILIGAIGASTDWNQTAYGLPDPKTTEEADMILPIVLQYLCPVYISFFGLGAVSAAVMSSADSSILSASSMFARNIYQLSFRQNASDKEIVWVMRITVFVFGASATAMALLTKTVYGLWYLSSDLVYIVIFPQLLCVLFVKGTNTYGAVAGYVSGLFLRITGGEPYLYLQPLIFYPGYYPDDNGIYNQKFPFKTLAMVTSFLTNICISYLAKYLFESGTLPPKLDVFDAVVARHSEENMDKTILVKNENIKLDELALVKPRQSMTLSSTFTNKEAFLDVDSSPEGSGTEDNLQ", "assay": "CHT inhibitors, dose response, cell-based, 5-point CRC, membrane potential dye (AID 504840)", "assay_type": "functional"}, "Cytochrome P450 2D6": {"target": "Cytochrome P450 2D6 (Homo sapiens, UniProt P10635)", "sequence (P10635 whole entry)": "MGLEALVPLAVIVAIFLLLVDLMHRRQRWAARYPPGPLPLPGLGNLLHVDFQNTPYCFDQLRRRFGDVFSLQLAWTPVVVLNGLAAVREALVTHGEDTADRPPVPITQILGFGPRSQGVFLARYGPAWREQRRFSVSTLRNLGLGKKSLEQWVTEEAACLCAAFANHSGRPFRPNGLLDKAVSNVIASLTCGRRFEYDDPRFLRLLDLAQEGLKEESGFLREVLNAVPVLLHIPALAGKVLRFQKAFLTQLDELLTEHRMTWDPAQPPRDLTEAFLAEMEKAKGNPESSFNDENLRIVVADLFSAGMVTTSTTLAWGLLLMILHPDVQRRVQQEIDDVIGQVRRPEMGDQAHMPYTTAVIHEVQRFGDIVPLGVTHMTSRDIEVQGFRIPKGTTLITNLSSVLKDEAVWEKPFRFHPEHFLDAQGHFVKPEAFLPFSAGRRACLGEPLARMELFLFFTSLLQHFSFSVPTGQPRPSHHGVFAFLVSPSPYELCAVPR"}, "Cytochrome P450 1A2": {"target": "T4, Cytochrome P450 1A2 (Homo sapiens, UniProt P05177)", "T4 sequence (P05177 whole entry)": "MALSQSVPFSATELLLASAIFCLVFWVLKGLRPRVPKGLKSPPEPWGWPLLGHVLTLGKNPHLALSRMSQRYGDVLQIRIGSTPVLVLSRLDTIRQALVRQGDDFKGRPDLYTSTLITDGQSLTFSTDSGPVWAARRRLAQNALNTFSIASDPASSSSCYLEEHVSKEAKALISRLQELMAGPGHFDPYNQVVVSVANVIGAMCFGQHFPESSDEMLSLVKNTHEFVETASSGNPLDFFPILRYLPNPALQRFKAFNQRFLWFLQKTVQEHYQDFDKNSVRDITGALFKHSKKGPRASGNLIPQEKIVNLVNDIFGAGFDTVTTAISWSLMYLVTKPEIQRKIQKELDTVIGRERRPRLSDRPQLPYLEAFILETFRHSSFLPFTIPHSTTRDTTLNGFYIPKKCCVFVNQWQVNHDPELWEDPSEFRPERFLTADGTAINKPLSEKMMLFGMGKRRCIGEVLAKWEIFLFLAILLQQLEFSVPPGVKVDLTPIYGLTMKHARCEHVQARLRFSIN"}}, "note": "Calls of active or inactive are those of the source.", "data": [{"smiles": "Nc1ccc2nc3c(=O)n(C4CCCCC4)c(=O)[nH]c3nc2c1", "values": [{"measurement": "AC50", "setting": "Keap1/Nrf2", "result": "9.04 µM (active)"}, {"measurement": "AC50", "setting": "ORF 73", "result": "1.42 µM (active)"}, {"measurement": "AC50", "setting": "[1]", "result": "2.64 µM (active)"}]}, {"smiles": "Cc1cc(C)nc(N=C(N)Nc2ccc(-c3ccccc3)cc2)n1", "values": [{"measurement": "IC50", "setting": "cells", "result": "39 µM (active)"}, {"measurement": "CC50", "setting": "[2]", "result": "9.89 µM (active)"}, {"measurement": "AC50", "setting": "[3]", "result": "4.45 µM (active)"}, {"measurement": "IC50", "setting": "[4]", "result": "1.56 µM (active)"}, {"measurement": "IC50", "setting": "[5]", "result": "> 47.1 µM (inactive)"}, {"measurement": "AC50", "setting": "[6]", "result": "> 70 µM (inactive)"}, {"measurement": "CC50", "setting": "[7]", "result": "> 20 µM (active)"}, {"measurement": "IC50", "setting": "[8]", "result": "1.36 µM (active)"}, {"measurement": "CC50", "setting": "[9]", "result": "18.2 µM (active)"}, {"measurement": "EC50", "setting": "[10]", "result": "31.7 µM (active)"}, {"measurement": "AC50", "setting": "[11]", "result": "22.6 µM (active)"}]}, {"smiles": "CC1(c2ccc3ccccc3c2)NC(=O)N(CC(=O)N2CCN(Cc3ccc(C#N)cc3)CC2)C1=O", "note": "(stereo not given)", "values": [{"measurement": "AC50", "setting": "[3]", "result": "0.416 µM (active)"}, {"measurement": "IC50", "setting": "[12]", "result": "> 80 µM (inactive)"}, {"measurement": "AC50", "setting": "[6]", "result": "< 0.26 µM (active)"}, {"measurement": "IC50", "setting": "Jurkat", "result": "> 80 µM (inactive)"}, {"measurement": "AC50", "setting": "[11]", "result": "1.04 µM (active)"}]}, {"smiles": "COCC(=O)N1CCN(c2ccc([N+](=O)[O-])cc2)CC1", "values": [{"measurement": "AC50", "setting": "Cytochrome P450 3A4", "result": "inconclusive"}]}, {"smiles": "Cc1cccc(NS(=O)(=O)c2cccc(C(=O)NCC(c3ccco3)N3CCCCC3)c2)c1", "note": "(stereo not given)", "values": [{"measurement": "AC50", "setting": "[13]", "result": "32.2 µM (active)"}, {"measurement": "IC50", "setting": "[14]", "result": "22 µM (active)"}]}, {"smiles": "O=c1[nH]c(=O)n(-c2ccc(F)cc2)c2c1C(C(F)(F)F)(C(F)(F)F)N=C(c1ccc(F)cc1)N2", "values": [{"measurement": "IC50", "setting": "[5]", "result": "4.69 µM (active)"}, {"measurement": "EC50", "setting": "[10]", "result": "> 53 µM (inactive)"}, {"measurement": "IC50", "setting": "[14]", "result": "12 µM (active)"}]}, {"smiles": "COCCCNC(=O)c1ccc2c(=O)n(CC3CCCO3)c(=S)[nH]c2c1", "note": "(stereo not given)", "values": [{"measurement": "AC50", "setting": "Cytochrome P450 3A4", "result": "inconclusive"}, {"measurement": "AC50", "setting": "Cytochrome P450 2D6", "result": "0.178 µM (inconclusive)"}, {"measurement": "AC50", "setting": "Cytochrome P450 1A2", "result": "20 µM (inconclusive)"}]}, {"smiles": "CCCN(CCc1ccccc1)[C@H]1CCc2c(O)cccc2C1", "values": [{"measurement": "AC50", "setting": "Cytochrome P450 3A4", "result": "inconclusive"}, {"measurement": "AC50", "setting": "Cytochrome P450 1A2", "result": "12.6 µM (inconclusive)"}]}]}
